Laboratory results taken from patent US10118916B2, “Modulators of cystic fibrosis transmembrane conductance regulator protein” (AbbVie S.à.r.l., priority 2016, dated 2018).

Biological target: T1, F508delCFTR (Homo sapiens, UniProt P13569, DEL508-508)
T1 construct: expressed in transfected cells; host or cells: CFBE41o- (human lung derived epithelial cell line), doxycycline-inducible
Experiment: Cell Surface Expression-Horse Radish Peroxidase (CSE-HRP) assay
Type: cell-based
Details: CFBE41o-F508delCFTR-HRP cells; for EC50: F508delCFTR cell surface expression, luminescence, 18-24 hours at 33° C., highest concentration 20 μM; for Maximum % activity: maximum at any tested concentration, normalized to on-plate positive control (3 μM)
Text: Cell Surface Expression-Horse Radish Peroxidase (CSE-HRP) Assay:
A cellular assay for measuring the F508delCFTR cell surface expression after correction with test compounds was developed in human lung derived epithelial cell line (CFBE41o-) (Veit G et al, (2012) Mol Biol Cell. 23(21): 4188-4202). This was achieved by expressing the F508delCFTR mutation along with a horseradish peroxidase (HRP) in the fourth exofacial loop and then measuring the HRP activity using luminescence readout from these cells, CFBE41o-F508delCFTR-HRP, that were incubated overnight with the test corrector compounds. Briefly, for this primary assay, the CFBE41o-F508delCFTR-HRP cells were plated in 384-well plates (Greiner Bio-one; Cat 781080) at 4,000 cells/well along with 0.5 μg/mL doxycycline to induce the F508delCFTR-HRP expression and further incubated at 37° C., 5% CO2 for 72 hours. The test compounds were then added at the required concentrations and further incubated for 18-24 hours at 33° C. The highest concentration tested was 20 μM with an 8-point concentration response curve using a 3-fold dilution. Three replicate plates were run to determine one EC50. All plates contained negative controls (dimethyl sulfoxide, DMSO) and positive controls (3 μM of 3-[(2R,4R)-4-({[1-(2,2-difluoro-1,3-benzodioxol-5-yl)cyclopropyl]carbonyl}amino)-7-methoxy-3,4-dihydro-2H-chromen-2-yl]benzoic acid) as well as on-plate concentration response of the positive control. Post incubation, the plates were washed 5× times with Dulbecco's phosphate buffered saline (DPBS), followed by the addition of the HRP substrate, luminol (50 μL), and measuring the HRP activity using luminescence readout on EnVision® Multilabel Plate Reader (Perkin Elmer; product number 2104-0010). The raw counts from the experiment are analyzed using Accelrys® Assay Explorer v3.3.
Z′ greater than 0.5 was used as passing quality control criteria for the plates.
The Z′ is defined as: 1−[3*SDPositive Control+3*SDNegative Control/Absolute(MeanPositive Control−MeanNegative Control)] wherein “SD” is standard deviation.
The % activity measured at each of the 8 test concentrations of the test compound was normalized to the on-plate positive control using the following formula: % activity=[(test compound response−DMSO response)/(positive control response−DMSO response)]*100
The maximum % activity achieved for the test compound at any tested concentration is presented in Table 1 along with the EC50 calculated using the following general sigmoidal curve with variable Hill slope equation (described as Model 42 in the Accelrys® Assay Explorer v3.3 software): y=(a−d)/(1+(x/c)^b)+d
General sigmoidal curve with concentration, response, top, bottom, EC50 and Hill slope.
This model describes a sigmoidal curve with an adjustable baseline, a. The equation can be used to fit curves where response is either increasing or decreasing with respect to the independent variable, “x”. • “x” is a concentration of drug under test. • “y” is the response. • “a” is the maximum response, and “d” is the minimum response • “c” is the inflection point (EC50) for the curve. That is, “y” is halfway between the lower and upper asymptotes when x=c. • “b” is the slope-factor or Hill coefficient. The sign of b is positive when the response increases with increasing dose and is negative when the response decreases with increasing dose (inhibition).

T1 sequence (P13569 with tags, fused parts or gaps DEL508-508): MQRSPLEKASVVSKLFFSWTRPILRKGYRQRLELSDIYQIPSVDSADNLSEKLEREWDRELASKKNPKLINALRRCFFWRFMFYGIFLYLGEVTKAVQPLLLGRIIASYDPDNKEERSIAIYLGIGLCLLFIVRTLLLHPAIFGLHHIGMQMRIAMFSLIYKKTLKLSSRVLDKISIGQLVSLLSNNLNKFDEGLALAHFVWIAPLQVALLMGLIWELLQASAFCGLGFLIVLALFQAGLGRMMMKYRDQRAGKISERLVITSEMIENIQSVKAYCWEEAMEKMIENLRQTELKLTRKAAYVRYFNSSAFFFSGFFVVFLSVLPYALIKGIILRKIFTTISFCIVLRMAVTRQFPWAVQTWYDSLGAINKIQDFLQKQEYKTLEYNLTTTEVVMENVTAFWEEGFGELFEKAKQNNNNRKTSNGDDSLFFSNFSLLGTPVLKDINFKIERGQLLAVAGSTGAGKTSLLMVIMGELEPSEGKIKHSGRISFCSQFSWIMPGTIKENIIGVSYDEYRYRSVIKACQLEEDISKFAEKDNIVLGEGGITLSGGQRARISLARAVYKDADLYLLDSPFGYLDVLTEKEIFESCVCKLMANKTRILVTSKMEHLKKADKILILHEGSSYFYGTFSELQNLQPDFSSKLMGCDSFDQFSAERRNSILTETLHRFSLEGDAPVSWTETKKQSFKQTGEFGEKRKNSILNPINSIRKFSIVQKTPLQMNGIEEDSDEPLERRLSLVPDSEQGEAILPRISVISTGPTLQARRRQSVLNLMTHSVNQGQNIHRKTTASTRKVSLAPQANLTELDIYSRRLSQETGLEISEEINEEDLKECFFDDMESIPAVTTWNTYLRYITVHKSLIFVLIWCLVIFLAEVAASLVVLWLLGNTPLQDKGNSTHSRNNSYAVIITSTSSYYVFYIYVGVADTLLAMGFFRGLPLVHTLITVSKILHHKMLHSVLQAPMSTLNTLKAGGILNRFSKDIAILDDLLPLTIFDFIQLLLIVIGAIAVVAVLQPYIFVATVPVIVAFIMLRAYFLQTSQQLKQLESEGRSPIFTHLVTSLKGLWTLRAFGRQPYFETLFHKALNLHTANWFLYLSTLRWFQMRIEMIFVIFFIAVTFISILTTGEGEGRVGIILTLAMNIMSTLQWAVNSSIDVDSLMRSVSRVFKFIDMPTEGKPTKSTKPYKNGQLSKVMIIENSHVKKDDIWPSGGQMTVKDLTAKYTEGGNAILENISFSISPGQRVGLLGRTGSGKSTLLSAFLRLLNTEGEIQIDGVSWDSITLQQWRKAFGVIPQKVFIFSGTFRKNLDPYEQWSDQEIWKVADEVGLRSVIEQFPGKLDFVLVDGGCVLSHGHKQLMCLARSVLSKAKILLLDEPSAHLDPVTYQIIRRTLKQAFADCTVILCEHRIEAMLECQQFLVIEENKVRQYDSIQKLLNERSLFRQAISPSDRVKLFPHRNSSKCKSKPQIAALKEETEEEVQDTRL

Compound | EC50 [nM] | Maximum % activity [%]
3-[(2R,4R)-4-{[(2R)-6-chloro-2-methyl-3,4-dihydro-2H-1-benzopyran-2-carbonyl]amino}-7-methoxy-3,4-dihydro-2H-1-benzopyran-2-yl]benzoic acid [Example 65] | 2140 | 27.0
3-{(2R,4R)-4-[2-(2H-1,3-benzodioxol-5-yl)-2-methylpropanamido]-7-methoxy-3,4-dihydro-2H-1-benzopyran-2-yl}benzoic acid [Example 38] | 160 | 34.4
4-[(2R,4R)-4-(2-ethyl-2-phenylbutanamido)-7-methoxy-3,4-dihydro-2H-1-benzopyran-2-yl]benzoic acid [Example 79] | > 20000 | −0.3
COc1ccc2c(c1)O[C@@H](c1ccc(C(=O)O)cc1)C[C@H]2NC(=O)C1(c2ccccc2)CC1(F)F (mixture of isomers) [Example 105, 4-{(2R,4R)-4-[(2,2-difluoro-1-phenylcyclopropane-1-carbonyl)amino]-7-methoxy-3,4-dihydro-2H-1-benzopyran-2-yl}benzoic acid] | 1100 | 32.0
COC(=O)c1cccc([C@H]2C[C@@H](NC(=O)C3(C)CCc4cc(C)ccc43)c3ccc(OC)cc3O2)c1 (mixture of isomers) [Example 123, methyl 3-{(2R,4R)-4-[(1,5-dimethyl-2,3-dihydro-1H-indene-1-carbonyl)amino]-7-methoxy-3,4-dihydro-2H-1-benzopyran-2-yl}benzoate] | 450 | 80.8
COC(=O)[C@H]1CC[C@@H]([C@H]2C[C@@H](NC(=O)C3(c4ccc5c(c4)OC(F)(F)O5)CC3)c3ccc(OC(F)F)cc3O2)CC1 (single isomer, unassigned) [Example 14D] | 630 | 121.5
COc1ccc2c(c1)O[C@@H](c1ccc(C(=O)O)cc1)C[C@H]2NC(=O)[C@]1(C)CCc2cc(C)ccc21 (single isomer, unassigned) [Example 126] | 650 | 72.1
COc1ccc2c(c1)O[C@@H](c1ccc(C(=O)O)cc1)C[C@H]2NC(=O)C(C)(C)c1ccc2c(c1)OC(F)(F)O2 [Example 1, 4-{(2R,4R)-4-[2-(2,2-difluoro-2H-1,3-benzodioxol-5-yl)-2-methylpropanamido]-7-methoxy-3,4-dihydro-2H-1-benzopyran-2-yl}benzoic acid] | 550 | 110.0
COc1ccc2c(c1)O[C@@H](c1ccc(C(=O)O)cc1)C[C@H]2NC(=O)C1(c2ccc(OC(F)(F)F)cc2)CC1 [Example 3, 4-[(2R,4R)-7-methoxy-4-({1-[4-(trifluoromethoxy)phenyl]cyclopropane-1-carbonyl}amino)-3,4-dihydro-2H-1-benzopyran-2-yl]benzoic acid] | 1940 | 106.0
COc1ccc2c(c1)OC(c1ccc(OC)c(OC)c1)CC2NC(=O)C1(c2ccccc2)CC(F)(F)C1 (stereo not shown) [Example 16, N-[2-(3,4-dimethoxyphenyl)-7-methoxy-3,4-dihydro-2H-1-benzopyran-4-yl]-3,3-difluoro-1-phenylcyclobutane-1-carboxamide] | > 20000 | 4.0
COc1ccc2c(c1)OC(c1ccc(OC)c(OC)c1)CC2NC(=O)C1(c2ccc(F)c(F)c2)CCC1 (stereo not shown) [Example 17, 1-(3,4-difluorophenyl)-N-[2-(3,4-dimethoxyphenyl)-7-methoxy-3,4-dihydro-2H-1-benzopyran-4-yl]cyclobutane-1-carboxamide] | 3320 | 27.6
COc1ccc2c(c1)OC(c1ccc(OC)c(OC)c1)CC2NC(=O)C(C)(C)Oc1ccc(Cl)cc1 (stereo not shown) [Example 18, 2-(4-chlorophenoxy)-N-[2-(3,4-dimethoxyphenyl)-7-methoxy-3,4-dihydro-2H-1-benzopyran-4-yl]-2-methylpropanamide] | > 20000 | 5.5
COc1ccc2c(c1)OC(c1ccc(OC)c(OC)c1)CC2NC(=O)C1(c2cccc(F)c2)CC1 (stereo not shown) [Example 19, N-[2-(3,4-dimethoxyphenyl)-7-methoxy-3,4-dihydro-2H-1-benzopyran-4-yl]-1-(3-fluorophenyl)cyclopropane-1-carb oxamide] | 1270 | 40.8

Results, then the compound that gave them:

EC50 [nM] | Maximum % activity [%] | Compound
180 | 95.5 | COc1ccc2c(c1)O[C@@H](c1ccc(C(=O)O)cc1)C[C@H]2NC(=O)[C@@]1(C)CCc2cc(C)ccc21 (single isomer, unassigned) [Example 9]
200 | 125.0 | COC(=O)[C@H]1CC[C@H]([C@H]2C[C@@H](NC(=O)C3(c4ccc5c(c4)OC(F)(F)O5)CC3)c3ccc(OC(F)F)cc3O2)CC1 (single isomer, unassigned) [Example 14E]
440 | 70.7 | COc1ccc2c(c1)O[C@@H](c1cccc(C(=O)O)c1)C[C@H]2NC(=O)[C@]1(C)CCc2cc(C)ccc21 (single isomer, unassigned) [Example 125]
150 | 95.0 | COc1ccc2c(c1)O[C@@H](c1ccc(C(=O)O)cc1)C[C@H]2NC(=O)C1(c2ccc(Cl)c(Cl)c2)CC1 [Example 2, 4-[(2R,4R)-4-{[1-(3,4-dichlorophenyl)cyclopropane-1-carbonyl]amino}-7-methoxy-3,4-dihydro-2H-1-benzopyran-2-yl]benzoic acid]
260 | 94.2 | COc1ccc2c(c1)O[C@@H](c1ccc(C(=O)O)cc1)C[C@H]2NC(=O)C1(c2ccc(Br)cc2)CC1 [Example 4, 4-[(2R,4R)-4-{[1-(4-bromophenyl)cyclopropane-1-carbonyl]amino}-7-methoxy-3,4-dihydro-2H-1-benzopyran-2-yl]benzoic acid]
210 | 120.0 | COc1ccc2c(c1)O[C@@H](c1ccc(C(=O)O)cc1)C[C@H]2NC(=O)C1(c2ccc(C(F)(F)F)cc2)CC1 [Example 5, 4-[(2R,4R)-7-methoxy-4-({1-[4-(trifluoromethyl)phenyl]cyclopropane-1-carbonyl}amino)-3,4-dihydro-2H-1-benzopyran-2-yl]benzoic acid]
90 | 95.9 | COc1ccc2c(c1)O[C@@H](c1ccc(C(=O)O)cc1)C[C@H]2NC(=O)C1(c2ccc(C)cc2)CC1 [Example 6, 4-[(2R,4R)-7-methoxy-4-{[1-(4-methylphenyl)cyclopropane-1-carbonyl]amino}-3,4-dihydro-2H-1-benzopyran-2-yl]benzoic acid]
160 | 90.1 | COc1ccc2c(c1)O[C@@H](c1ccc(C(=O)O)cc1)C[C@H]2NC(=O)C1(C)CCc2cc(C)ccc21 (stereo partly drawn) [Example 7, 4-{(2R,4R)-4-[(1,5-dimethyl-2,3-dihydro-1H-indene-1-carbonyl)amino]-7-methoxy-3,4-dihydro-2H-1-benzopyran-2-yl}benzoic acid]
290 | 119.0 | CCOC(=O)[C@H]1CC[C@H]([C@H]2C[C@@H](NC(=O)C3(c4ccc5c(c4)OC(F)(F)O5)CC3)c3ccc(OC)cc3O2)CC1 [Example 10, ethyl trans-4-[(2R,4R)-4-{[1-(2,2-difluoro-2H-1,3-benzodioxol-5-yl)cyclopropane-1-carbonyl]amino}-7-methoxy-3,4-dihydro-2H-1-benzopyran-2-yl]cyclohexane-1-carboxylate]
70 | 135.0 | CCOC(=O)[C@H]1CC[C@H]([C@H]2C[C@@H](NC(=O)C3(c4ccc5c(c4)OC(F)(F)O5)CC3)c3ccc(OC(F)(F)F)cc3O2)CC1 [Example 12, ethyl trans-4-[(2R,4R)-4-{[1-(2,2-difluoro-2H-1,3-benzodioxol-5-yl)cyclopropane-1-carbonyl]amino}-7-(trifluoromethoxy)-3,4-dihydro-2H-1-benzopyran-2-yl]cyclohexane-1-carboxylate]
